{"source": "patent US9512114B2", "about": "“Substituted aminopyrimidine compounds and methods of use” (Calitor Sciences, LLC, priority 2013, dated 2016)", "key": {"[1]": {"experiment": "Compound stability in human liver microsomes", "type": "in vitro ADME", "conditions": "pH 7.4", "how_it_was_run": "(§1)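 Human or rat liver microsomes (0.5 mg protein/mL) incubated with compound (5 μM) and NADPH (1.0 mM) in 100 mM potassium phosphate, pH 7.4, 0.05% DMSO, 37° C, sampled 0–60 min and quenched with cold acetonitrile. Remaining compound quantified by LC/MS/MS as % of time zero; CLint extrapolated.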"}, "[2]": {"experiment": "Compound stability in rat liver microsomes", "type": "in vitro ADME", "conditions": "pH 7.4", "how_it_was_run": "as §1"}, "PI3K (p110α/p85α) (h)": {"target": "PI3K (p110α/p85α) (h) (Homo sapiens (Human), UniProt P42336)", "sequence (P42336 whole entry)": "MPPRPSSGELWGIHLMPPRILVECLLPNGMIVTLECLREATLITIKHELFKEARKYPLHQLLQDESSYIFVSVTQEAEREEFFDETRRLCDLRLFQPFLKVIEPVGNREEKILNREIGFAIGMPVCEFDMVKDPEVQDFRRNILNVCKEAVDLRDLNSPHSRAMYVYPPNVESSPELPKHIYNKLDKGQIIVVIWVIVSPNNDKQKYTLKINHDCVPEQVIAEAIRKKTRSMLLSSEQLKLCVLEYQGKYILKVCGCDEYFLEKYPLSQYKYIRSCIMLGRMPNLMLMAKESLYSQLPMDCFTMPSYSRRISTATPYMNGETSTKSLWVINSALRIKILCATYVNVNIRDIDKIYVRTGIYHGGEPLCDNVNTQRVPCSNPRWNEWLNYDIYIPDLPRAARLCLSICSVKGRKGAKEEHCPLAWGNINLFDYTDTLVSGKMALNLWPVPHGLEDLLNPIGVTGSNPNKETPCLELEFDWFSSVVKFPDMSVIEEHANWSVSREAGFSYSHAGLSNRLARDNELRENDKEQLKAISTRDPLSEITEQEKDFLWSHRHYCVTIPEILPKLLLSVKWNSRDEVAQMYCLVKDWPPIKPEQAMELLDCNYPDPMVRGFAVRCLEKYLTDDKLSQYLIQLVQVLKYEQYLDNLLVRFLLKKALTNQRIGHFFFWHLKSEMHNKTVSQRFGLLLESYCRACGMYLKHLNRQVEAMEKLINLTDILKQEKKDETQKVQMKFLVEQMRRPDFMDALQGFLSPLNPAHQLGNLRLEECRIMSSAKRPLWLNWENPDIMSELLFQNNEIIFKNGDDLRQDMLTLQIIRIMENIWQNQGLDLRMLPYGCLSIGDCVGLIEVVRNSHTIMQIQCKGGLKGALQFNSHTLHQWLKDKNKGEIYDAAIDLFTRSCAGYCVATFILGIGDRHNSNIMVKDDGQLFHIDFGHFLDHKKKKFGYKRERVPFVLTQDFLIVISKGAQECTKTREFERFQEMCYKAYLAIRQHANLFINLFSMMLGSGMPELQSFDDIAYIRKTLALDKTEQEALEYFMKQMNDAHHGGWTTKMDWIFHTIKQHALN", "sequence (P27986 whole entry partner)": "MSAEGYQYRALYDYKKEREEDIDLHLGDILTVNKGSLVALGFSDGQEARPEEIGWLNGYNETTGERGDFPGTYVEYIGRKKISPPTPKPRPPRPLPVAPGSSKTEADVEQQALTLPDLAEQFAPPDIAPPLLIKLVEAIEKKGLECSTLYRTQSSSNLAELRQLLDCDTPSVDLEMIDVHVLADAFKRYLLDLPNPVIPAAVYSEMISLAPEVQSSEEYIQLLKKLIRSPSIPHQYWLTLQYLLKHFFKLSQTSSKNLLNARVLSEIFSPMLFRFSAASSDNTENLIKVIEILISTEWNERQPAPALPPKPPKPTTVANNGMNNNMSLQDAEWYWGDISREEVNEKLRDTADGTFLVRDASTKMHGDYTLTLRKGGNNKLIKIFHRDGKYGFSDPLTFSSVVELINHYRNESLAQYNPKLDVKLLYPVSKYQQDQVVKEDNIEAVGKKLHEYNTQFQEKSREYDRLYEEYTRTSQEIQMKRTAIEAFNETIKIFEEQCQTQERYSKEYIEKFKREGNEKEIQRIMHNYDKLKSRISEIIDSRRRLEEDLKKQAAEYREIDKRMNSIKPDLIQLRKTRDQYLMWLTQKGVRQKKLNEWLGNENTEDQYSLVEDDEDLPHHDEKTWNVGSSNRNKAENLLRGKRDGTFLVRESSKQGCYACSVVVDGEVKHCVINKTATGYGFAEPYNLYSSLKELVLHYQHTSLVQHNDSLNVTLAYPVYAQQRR", "experiment": "PI3K (p110α/p85α) (h) non-radioactive HTRF kinase assay", "type": "biochemical", "conditions": "performed at Millipore UK Ltd", "protocol": "(§2) The above assay procedure can be used to determine the IC50 for inhibition and/or the inhibition constant, Ki.\nPI3K (p110α/p85α) (h) [Non-Radioactive Assay]\n(§3) PI3K (p110α/p85α) (h) is incubated in assay buffer containing 10 μM phosphatidylinositol 4,5-bisphosphate and MgATP (concentration as required). The reaction is initiated by the addition of the ATP solution. After incubation for 30 minutes at room temperature, the reaction is stopped by the addition of stop solution containing EDTA and biotinylated phosphatidylinositol-3,4,5-trisphosphate. Finally, detection buffer is added, which contains europium-labelled anti-GST monoclonal antibody, GST-tagged GRP1 PH domain and streptavidin allophycocyanin. The plate is then read in timeresolved fluorescence mode and the homogenous time-resolved fluorescence (HTRF) signal is determined according to the formula HTRF=10000×(Em665 nm/Em620 nm).\n(§4) The kinase assays described herein were performed at Millipore UK Ltd, Dundee Technology Park, Dundee DD2 1SW, UK."}, "PI3K (p110β/p85α) (h)": {"target": "PI3K (p110β/p85α) (h) (Homo sapiens (Human), UniProt P42338)", "sequence (P42338 whole entry)": "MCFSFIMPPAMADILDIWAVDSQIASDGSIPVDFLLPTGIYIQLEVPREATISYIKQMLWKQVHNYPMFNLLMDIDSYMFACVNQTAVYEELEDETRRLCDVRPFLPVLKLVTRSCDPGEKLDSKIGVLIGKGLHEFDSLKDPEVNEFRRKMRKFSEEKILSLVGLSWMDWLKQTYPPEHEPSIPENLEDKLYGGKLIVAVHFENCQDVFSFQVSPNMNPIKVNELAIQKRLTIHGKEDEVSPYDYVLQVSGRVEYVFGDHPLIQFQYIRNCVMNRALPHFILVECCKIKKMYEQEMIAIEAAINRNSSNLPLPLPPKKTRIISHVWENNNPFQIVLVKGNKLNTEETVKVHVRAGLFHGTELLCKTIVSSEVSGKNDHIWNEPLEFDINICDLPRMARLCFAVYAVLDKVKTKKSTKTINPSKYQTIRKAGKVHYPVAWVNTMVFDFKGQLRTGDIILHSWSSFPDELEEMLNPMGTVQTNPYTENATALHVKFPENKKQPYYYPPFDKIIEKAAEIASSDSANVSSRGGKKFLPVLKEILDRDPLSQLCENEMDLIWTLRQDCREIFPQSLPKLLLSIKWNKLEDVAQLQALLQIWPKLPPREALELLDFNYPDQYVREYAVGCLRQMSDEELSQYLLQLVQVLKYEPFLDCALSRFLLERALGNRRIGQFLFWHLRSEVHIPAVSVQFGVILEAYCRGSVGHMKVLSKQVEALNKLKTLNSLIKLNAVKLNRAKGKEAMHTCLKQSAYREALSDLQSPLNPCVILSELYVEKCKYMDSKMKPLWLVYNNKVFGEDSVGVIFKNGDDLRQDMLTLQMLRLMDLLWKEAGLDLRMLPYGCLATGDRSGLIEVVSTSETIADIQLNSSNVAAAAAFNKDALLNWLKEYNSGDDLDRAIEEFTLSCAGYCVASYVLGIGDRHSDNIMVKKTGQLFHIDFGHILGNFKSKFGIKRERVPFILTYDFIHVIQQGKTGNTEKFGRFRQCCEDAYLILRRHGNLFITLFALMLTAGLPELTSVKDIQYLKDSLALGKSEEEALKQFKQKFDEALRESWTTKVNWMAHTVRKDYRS", "sequence (P27986 whole entry partner)": "as the sequence (P27986 whole entry partner) above", "experiment": "PI3K (p110β/p85α) (h) non-radioactive HTRF kinase assay", "type": "biochemical", "conditions": "performed at Millipore UK Ltd", "protocol": "as §2\nPI3K (p110β/p85α) (h) [Non-Radioactive Assay]\nas §3, with “([…])” for “(p110α/p85α)”, “phosphatidylinositol-4, 5-bisphosphate” for “phosphatidylinositol 4,5-bisphosphate”, “MgATP mix.” for “ATP solution.”, “streptavidin-allophycocyanin.” for “streptavidin allophycocyanin.”\nas §4"}, "PI3K (p110δ/p85α) (h)": {"target": "PI3K (p110δ/p85α) (h) (Homo sapiens (Human), UniProt O00329)", "sequence (O00329 whole entry)": "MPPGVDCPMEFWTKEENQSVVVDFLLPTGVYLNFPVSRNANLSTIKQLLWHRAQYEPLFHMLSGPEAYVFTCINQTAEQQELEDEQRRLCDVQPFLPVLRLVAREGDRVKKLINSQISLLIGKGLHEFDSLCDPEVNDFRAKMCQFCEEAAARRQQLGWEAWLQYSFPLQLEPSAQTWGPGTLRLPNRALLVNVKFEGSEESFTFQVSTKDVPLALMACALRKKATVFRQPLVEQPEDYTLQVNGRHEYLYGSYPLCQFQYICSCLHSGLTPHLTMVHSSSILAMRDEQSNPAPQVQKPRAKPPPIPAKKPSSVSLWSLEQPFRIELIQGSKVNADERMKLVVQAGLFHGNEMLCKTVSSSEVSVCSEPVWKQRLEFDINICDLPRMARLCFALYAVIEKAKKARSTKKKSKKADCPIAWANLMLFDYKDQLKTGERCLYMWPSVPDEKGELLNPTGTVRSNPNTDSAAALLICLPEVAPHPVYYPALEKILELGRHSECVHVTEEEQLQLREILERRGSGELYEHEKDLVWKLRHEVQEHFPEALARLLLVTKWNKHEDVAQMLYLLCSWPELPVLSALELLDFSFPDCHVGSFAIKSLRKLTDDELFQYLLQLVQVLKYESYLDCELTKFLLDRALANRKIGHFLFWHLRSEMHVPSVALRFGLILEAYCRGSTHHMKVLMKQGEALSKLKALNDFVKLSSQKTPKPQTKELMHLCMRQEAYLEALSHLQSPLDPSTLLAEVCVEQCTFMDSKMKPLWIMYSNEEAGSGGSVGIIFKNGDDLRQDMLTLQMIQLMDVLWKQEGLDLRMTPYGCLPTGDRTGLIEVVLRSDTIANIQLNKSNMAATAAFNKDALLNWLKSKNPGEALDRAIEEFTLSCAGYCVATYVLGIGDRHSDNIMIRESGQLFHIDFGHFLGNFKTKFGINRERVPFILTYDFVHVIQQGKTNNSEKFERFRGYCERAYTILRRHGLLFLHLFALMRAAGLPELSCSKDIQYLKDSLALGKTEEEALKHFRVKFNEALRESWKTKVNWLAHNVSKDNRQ", "sequence (P27986 whole entry partner)": "as the sequence (P27986 whole entry partner) above", "experiment": "PI3K (p110δ/p85α) (h) non-radioactive HTRF kinase assay", "type": "biochemical", "conditions": "performed at Millipore UK Ltd", "protocol": "as §2\nPI3K (p110δ/p85α) (h) [Non-Radioactive Assay]\nas §3, with “(p110δ/p85α)” for “(p110α/p85α)”, “phosphatidylinositol-4, 5-bisphosphate” for “phosphatidylinositol 4,5-bisphosphate”, “MgATP mix.” for “ATP solution.”, “streptavidin-allophycocyanin.” for “streptavidin allophycocyanin.”\nas §4"}, "PI3K (p120γ) (h)": {"target": "PI3K (p120γ) (h) (Homo sapiens (Human), UniProt P48736)", "sequence (P48736 whole entry)": "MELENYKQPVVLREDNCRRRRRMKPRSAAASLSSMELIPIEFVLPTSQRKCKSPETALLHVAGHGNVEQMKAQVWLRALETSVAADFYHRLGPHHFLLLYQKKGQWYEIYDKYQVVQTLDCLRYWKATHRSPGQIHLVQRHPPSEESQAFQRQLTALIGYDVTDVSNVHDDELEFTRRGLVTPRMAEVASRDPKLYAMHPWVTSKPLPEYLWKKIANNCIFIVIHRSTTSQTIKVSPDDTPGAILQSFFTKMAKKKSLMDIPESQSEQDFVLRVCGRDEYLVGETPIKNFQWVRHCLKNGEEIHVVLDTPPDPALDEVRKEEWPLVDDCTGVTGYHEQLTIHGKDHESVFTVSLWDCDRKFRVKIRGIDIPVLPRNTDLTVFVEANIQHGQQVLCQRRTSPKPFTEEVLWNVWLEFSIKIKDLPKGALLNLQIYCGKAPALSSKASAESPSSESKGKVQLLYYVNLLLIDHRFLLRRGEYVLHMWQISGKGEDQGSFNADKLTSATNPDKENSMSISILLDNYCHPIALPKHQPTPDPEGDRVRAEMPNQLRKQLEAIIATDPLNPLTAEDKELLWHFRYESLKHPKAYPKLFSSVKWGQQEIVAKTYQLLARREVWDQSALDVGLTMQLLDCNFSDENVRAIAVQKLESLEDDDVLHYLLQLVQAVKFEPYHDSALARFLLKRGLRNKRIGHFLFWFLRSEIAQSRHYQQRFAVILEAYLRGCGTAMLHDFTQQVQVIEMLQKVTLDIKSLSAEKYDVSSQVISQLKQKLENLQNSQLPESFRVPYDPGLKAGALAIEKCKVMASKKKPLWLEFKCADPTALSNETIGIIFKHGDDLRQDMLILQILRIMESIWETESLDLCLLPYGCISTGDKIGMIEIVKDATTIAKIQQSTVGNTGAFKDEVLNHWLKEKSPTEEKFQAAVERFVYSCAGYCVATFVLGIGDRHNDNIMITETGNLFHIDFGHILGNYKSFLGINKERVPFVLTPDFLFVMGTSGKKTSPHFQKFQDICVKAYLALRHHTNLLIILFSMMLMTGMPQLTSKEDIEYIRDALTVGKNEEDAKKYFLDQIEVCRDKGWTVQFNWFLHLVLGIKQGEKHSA", "experiment": "PI3K (p120γ) (h) non-radioactive HTRF kinase assay", "type": "biochemical", "conditions": "performed at Millipore UK Ltd", "protocol": "as §2\nPI3K (p120γ) (h) [Non-Radioactive Assay]\nas §3, with “(p120γ)” for “(p110α/p85α)”, “phosphatidylinositol-4, 5-bisphosphate” for “phosphatidylinositol 4,5-bisphosphate”, “MgATP mix.” for “ATP solution.”, “streptavidin-allophycocyanin.” for “streptavidin allophycocyanin.”\nas §4"}, "PI3Kδ": {"test_system": "PI3Kδ", "conditions": "Cell, 2006, 125, 733-747; cited from earlier work"}, "protein kinases": {"test_system": "protein kinases", "conditions": "Cell, 2006, 125, 733-747; cited from earlier work"}, "[3]": {"test_system": "ovalbumin-induced airway inflammation", "conditions": "murine asthma model, FASEB, 2006, 20: 455-465; cited from earlier work"}, "[4]": {"test_system": "rheumatoid arthritis model", "conditions": "Nature Medicine, 2005, 11, 936-943; cited from earlier work"}, "[5]": {"test_system": "systemic lupus erythematosis model", "conditions": "Nature Medicine, 2005, 11, 933-935; cited from earlier work"}}}
{"smiles": "Cc1nnc(-c2c(N)ncnc2N[C@@H](C)c2cc3cccc(-c4cnn(C)c4)c3c(=O)n2-c2ccccc2)o1", "note": "[Ex. 27, (S)-3-(1-((6-amino-5-(5-methyl-1,3,4-oxadiazol-2-yl)pyrimidin-4-yl)amino)ethyl)-8-(1-methyl-1H-pyrazol-4-yl)-2-phenylisoquinolin-1(2H)-one]", "values": [{"measurement": "CLint scaled at 5 μM", "setting": "[1]; liver microsomes, in vivo CLint extrapolated from human liver microsome incubation", "value": 15.5, "unit": "mL/min/kg"}, {"measurement": "half-life at 5 μM", "setting": "[1]; human liver microsomes 0.5 mg protein/mL, compound 5 μM, NADPH 1.0 mM, 37° C., read-out: Human T1/2", "value": 1.87, "unit": "h"}, {"measurement": "CLint scaled at 5 μM", "setting": "[2]; liver microsomes, in vivo CLint extrapolated from rat liver microsome incubation", "value": 33.3, "unit": "mL/min/kg"}, {"measurement": "half-life at 5 μM", "setting": "[2]; rat liver microsomes 0.5 mg protein/mL, compound 5 μM, NADPH 1.0 mM, 37° C., read-out: Rat T1/2", "value": 1.24, "unit": "h"}, {"measurement": "IC50", "setting": "PI3K (p110α/p85α) (h)", "value": "> 3000", "unit": "nM"}, {"measurement": "IC50", "setting": "PI3K (p110β/p85α) (h)", "value": "> 3000", "unit": "nM"}, {"measurement": "IC50", "setting": "PI3K (p110δ/p85α) (h)", "value": 17, "unit": "nM"}, {"measurement": "IC50", "setting": "PI3K (p120γ) (h)", "value": 237, "unit": "nM"}]}
{"smiles": "Cc1ccccc1-n1c(Cn2cnc3c(N)ncnc32)nc2cccc(C)c2c1=O", "note": "[IC87114]", "values": [{"measurement": "inhibits PI3Kδ", "setting": "PI3Kδ", "value": "high nanomolar range (triple digit)"}, {"measurement": "activity against any protein kinases tested", "setting": "protein kinases", "value": "no activity"}, {"measurement": "effect on inflammation and disease", "setting": "[3]", "value": "significantly ameliorate inflammation and disease"}]}
{"smiles": "O=C1NC(=O)/C(=C\\c2ccc3nccnc3c2)S1", "note": "[AS 605240]", "values": [{"measurement": "efficacy in mouse model of rheumatoid arthritis", "setting": "[4]", "value": "efficacious"}, {"measurement": "effect on onset of disease in model of systemic lupus erythematosis", "setting": "[5]", "value": "delay onset of disease"}]}
